Assay results published in EP2468746A1, “Benzothiazinone compounds and their use as anti-tuberculosis agents” (priority 2010, dated 2012).
Converted amounts (≈) assume the structure as drawn. “And” between values parts separate entries of the source, which are not always exact repeats. Equal values may be shown once. Read-outs that look alike come from different tables or passages of the source.

Experiments:
[1] = test system: mycobacteria; conditions: comparison values, strain not named; cited from earlier work
[2] = test system: M smeg 5G987; test: MIC assay, broth microdilution with resazurin; format: cell-based, Mycobacterium smegmatis; conditions: for MIC: Mycolicibacterium smegmatis
Method: (§1) The protocol used is based upon that detailed by the CLSI (Clinical and Laboratory Standards Institute (CLSI) 2006. Methods for Dilution Antimicrobial Susceptibility Tests for Bacteria that Grow Aerobically; Approved Standard. 7th edn. Document M7-A6. Clinical and Laboratory Standards Institute, Wayne, PA.).
(§2) The compounds are dissolved in DSMO in a concentration of 1 mg/ml and further diluted in water to achieve the final concentration, which is used as the highest concentration for determination of MIC. This highest concentration is filled in the first row of the microtiter plate and further diluted in the culture medium for the mycobacteria (Mueller-Hinton Broth and Middlebrook 7H9 broth). All solutions are freshly prepared under sterile conditions.
(§3) Ciprofloxacin, Isoniazid and Rifampicin can be used as reference compounds for control of the assay as well as a solvent control.
(§4) Minimal inhibitory concentrations (MIC) are determined according to the CLSI guidelines using the broth microdilution method. 50 µl of the compound solution are serially diluted directly in the microtiter plate by factor two with MHB or 7H9 media. Then the wells are inocalated with 50 µl of test organisms in MHB/7H9 to give a final concentration of 5x10^5 CFU/ml. After that the microtiter plates are incubated at 37°C for 48 h. Then 30 µl of resazurin solution is added to each well and plates are allowed to incubate at 37°C for additional 24 hrs. A change from blue to pink colour indicates reduction of resazurin and therefore bacterial growth. The MIC is defined as the lowest drug concentration that prevents this colour change.
(§5) Resazurin salt powder (Sigma) is prepared at 0.01 % (wt/vol) in distilled water, sterilized by filtration through a 0.22 µm membrane and stored at 4°C for a week.

[3] = test system: M fort B; test: MIC assay, broth microdilution with resazurin; format: cell-based; conditions: for MIC: read-out: MIC M fort B
Method: as §1, §2, §3, §4, §5

[4] = test system: M tb MDR (BACTEC); test: microbe, parasite or virus in culture; format: cell-based, M. tuberculosis; conditions: for MIC: Mycobacterium tuberculosis
[5] = test system: HUVEC; format: cell-based
Method: (§6) Test cells (see Table below for details) are seeded as 1x10^4 cells per well in a clear 96 well plate in a final volume of 100 µl in media. Cells are incubated for 24 hours at 37°C, 5% CO2 to allow cells to attach to the plates.
(§7) The compounds of the present invention are added in triplicate in a range of concentrations. For compound A e.g., the concentration started from 100µM,...and then 2-fold diluted to 0.78µM. Colistin and Tamoxifen were applied as controls.
(§8) The cells are incubated for 24 hours at 37°C, 5% CO2. MTT (3-(4,5-Dimethylthiazol-2-yl)-2,5-diphenyltetrazolium bromide) (Sigma) (dissolved in PBS) is added to each well to a final concentration of 0.4 mg/mL. The plate is then incubated for 1 hours at 37°C, 5% CO2. Media is removed, and crystals are resuspended in 60 µl of DMSO. Shaking the plate at room temperature for 10 minutes dissolves the formazan crystals, and the absorbance is then read at 570 nm.
(§9) Results are presented as the average percentage of control ± SD for each set of duplicate wells using the following equation: Percent Viability = (ABSTEST - ABS5%DMSO/ / ABSUNTREATED -ABS5%DMSO)*100. A 1% DMSO 'vehicle' control is also included to monitor the effect of DMSO on the cells (all pure compounds are diluted in 10 % DMSO, so final assay concentration is 1%).

[6] = test system: K-562; format: cell-based
Method: as §6, §7, §8, §9

[7] = Stability in plasma (M); conditions: second value of the cell
[8] = test system: HEK293; test: Cytotoxicity assay (MTT); format: cell-based; conditions: 24 hours, read-out: CytoTox HEK293 (CC50)
Method: as §6, §7, §8, §9

[9] = test system: HepG2; test: Cytotoxicity assay (MTT); format: cell-based; conditions: 24 hours, read-out: CytoTox HepG2 (CC50)
Method: as §6, §7, §8, §9

[10] = test system: HeLa; test: Cytotoxicity assay (MTT); format: cell-based; conditions: 24 hours, read-out: CytoTox HeLa (CC50)
Method: as §6, §7, §8, §9

[11] = Stability in plasma (H); conditions: first value of the cell
[12] = test system: Mycobacterium smegmatis, ATCC 700084; test: MIC assay, broth microdilution with resazurin; format: cell-based; conditions: Mycolicibacterium smegmatis, ATCC700084; head carries superscript IMB; read-out: MIC M smeg 700084
Method: as §1, §2, §3, §4, §5

[13] = test system: M aurum SB66; test: MIC assay, broth microdilution with resazurin; format: cell-based; conditions: for activity against M. aureum strain SB66: strain resistant against agents that target decaprenylphosporyl-β-D-ribose 2'-epimerase
Method: as §1, §2, §3, §4, §5

[14] = test system: M vaccae 10670; test: MIC assay, broth microdilution with resazurin; format: cell-based
Method: as §1, §2, §3, §4, §5

[15] = physchem; conditions: 20 °C, pH 7.4, aqueous buffer, kinetic from dmso stock
[16] = Cytotoxicity assay (MTT); format: cell-based; conditions: human
Method: as §6, §7, §8, §9

[17] = test system: M. tuberculosis H37Rv; test: BTZ efficacy in the acute animal model (mouse infection); format: in vivo; conditions: BALB/c mice, 5 x 10^6 CFU, gavage 37.5 or 300 mg per kg, once daily, 5 times/week, four weeks
Method: BTZ efficacy in vivo can be determined in a standard mouse infection model according to e.g. the following protocol. BALB/c mice are infected with M. tuberculosis H37Rv at a bacillary load of 5 x 10^6 CFU by injection into the eye venous sinus, 10 BALB/c mice per group. The first day of the treatment is day 8 after the infection. Mice are dosed by gavage with 37.5, or 300 mg of BTZ, per kg body weight, in carboxymethyl cellulose formulation (0.25%), once daily, 5 times/week, for four weeks. Negative control mice died 25-28 days after infection.

[18] = 5G987, read-out: MIC M smeg 5G987

NNC(=O)c1ccncc1 [isoniazid]
MIC of the existing TB drugs [1]: 0.02 to 0.2 µg/mL

O=c1nc(N2CCN(Cc3ccccc3)CC2)sc2c([N+](=O)[O-])cc(C(F)(F)F)cc12 [Cpd 7 of WO 2009/010163, reference compound]
MIC [2, 18]: 0.05 µg/mL
MIC [3]: 0.05 µg/mL (≈ 0.111 µM)

CC[C@@H](CO)NCCN[C@@H](CC)CO [ethambutol]
MIC of the existing TB drugs [1]: 1 to 5 µg/mL

CC1COC2(CCN(c3nc(=O)c4cc(C(F)(F)F)cc([N+](=O)[O-])c4s3)CC2)O1 (stereo not shown) [Cpd 1 of WO 2007/134625, reference compound]
MIC M tb MDR (BACTEC) [4]: ≤0.015 µg/mL
CytoTox HUVEC (GC50) [5]: 8 µM
CytoTox K-562 (GC50) [6]: 11 µM
Stability Plasma (H/M) [7]: 97%
CC50 [8]: > 100 µM
CC50 [9]: > 100 µM
CC50 [10]: > 50 µM
MIC M smeg 5G987 [2]: 0.00312 µg/mL (≈ 0.00723 µM)
Stability Plasma (H/M) [11]: 107%
MIC [12]: 0.008 µg/mL (≈ 0.0185 µM)
MIC M aurum SB66 [13]: >100 µg/mL
activity against M. aureum strain SB66 [13]: neither compound A nor the Reference compound I are active
MIC M fort B [3]: 0.00156 µg/mL (≈ 0.00362 µM)
MIC [14]: 0.0004 µg/mL (≈ 0.000927 µM)

CN(C(=O)CN1CCN(c2nc(=O)c3cc(C(F)(F)F)cc([N+](=O)[O-])c3s2)CC1)c1ccccc1 [Compound A]
MIC ([4]; read-out: MIC M tb MDR (BACTEC)): 0.03 µg/mL (≈ 0.0591 µM)
MIC ([4]; read-out: MIC against MDR M. tuberculosis): 0.03 µg/mL and 0.059 µM
CytoTox HUVEC (GC50) ([5]; human, 24 h): 18 µM
CytoTox K-562 (GC50) ([6]; human, 24 h): 30 µM
Stability Plasma (H/M) [7]: 115%
solubility at 20 h [15]: 12 µM (≈ 6.09 µg/mL)
CC50 at 24 h ([16]; HEK293 cells, read-out: CytoTox HEK293 (CC50)): > 100 µM
CC50 at 24 h ([16]; HeLa cells, read-out: CytoTox HeLa (CC50)): 39 µM
CC50 at 24 h ([16]; HepG2 cells, read-out: CytoTox HepG2 (CC50)): > 100 µM
efficacy, life of the treated mice [17]: very effective in this model and significantly prolonged the life of the treated mice
MIC ([2]; 5G987, molar value in brackets, strain not named, read-out: MIC against Mycobacterium smegmatis): 0.025 µM
MIC [2, 18]: 0.0125 µg/mL
MIC ([2]; 5G987, read-out: MIC against Mycobacterium smegmatis): 0.012 µg/mL
Stability Plasma (H/M) [11]: 95%
MIC [12]: 0.015 µg/mL (≈ 0.0296 µM)
MIC [13]: > 100 µg/mL
activity against M. aureum strain SB66 [13]: neither compound A nor the Reference compound I are active
MIC [3]: 0.0125 µg/mL (≈ 0.0246 µM)
MIC [14]: 0.00312 µg/mL (≈ 0.00615 µM)
